Non-standard residues stand in square brackets, D forms with d. pGlu = O=C1CC[C@@H](C(=O)O)N1
Tested on: gluten-reactive T cells
Test: 96-well plate whole blood cytokine release, IP-10 by MAGPIX multiplex bead assay
Assay type: cell-based, human
Details: for Percent of maximal response to individual gluten peptides, IP-10: after oral gluten challenge; for IP-10 WB MAGPIX % max Mean: n = 10, blood after oral gluten challenge, individual peptides 5 μM (Peptide 2* of P14, Pepscan: 10 μg/mL (5.45 μM))

Row | Substance | Percent of maximal response to individual gluten peptides, IP-10 (Subject 1, Max. 2331 pg/mL) | Percent of maximal response to individual gluten peptides, IP-10 (Subject 2, Max. 3646 pg/mL) | Percent of maximal response to individual gluten peptides, IP-10 (Subject 3, Max. 9492 pg/mL) | Percent of maximal response to individual gluten peptides, IP-10 (Subject 4, Max. 9463 pg/mL) | Percent of maximal response to individual gluten peptides, IP-10 (Subject 5, Max. 9336 pg/mL) | Percent of maximal response to individual gluten peptides, IP-10 (Subject 6, Max. 5863 pg/mL) | Percent of maximal response to individual gluten peptides, IP-10 (Subject 7, Max. 2330 pg/mL) | Percent of maximal response to individual gluten peptides, IP-10 (Subject 8, Max. 4019 pg/mL) | Percent of maximal response to individual gluten peptides, IP-10 (Subject 9, Max. 8349 pg/mL) | Percent of maximal response to individual gluten peptides, IP-10 (Subject 10, Max. 8922 pg/mL) | IP-10 WB MAGPIX % max Mean [% max]
1 | (pE)PEQPEQPFPEQPQQ-amide ([pGlu]PEQPEQPFPEQPQQ-NH2; SMILES NC(=O)CC[C@H](NC(=O)[C@H](CCC(N)=O)NC(=O)[C@@H]1CCCN1C(=O)[C@H](CCC(N)=O)NC(=O)[C@H](CCC(=O)O)NC(=O)[C@@H]1CCCN1C(=O)[C@H](Cc1ccccc1)NC(=O)[C@@H]1CCCN1C(=O)[C@H](CCC(N)=O)NC(=O)[C@H](CCC(=O)O)NC(=O)[C@@H]1CCCN1C(=O)[C@H](CCC(N)=O)NC(=O)[C@H](CCC(=O)O)NC(=O)[C@@H]1CCCN1C(=O)[C@@H]1CCC(=O)N1)C(N)=O) [Peptide 11] | 0 % of max | 0 % of max | 6 % of max | 2 % of max | 0 % of max | 0 % of max | 0 % of max | 0 % of max | 0 % of max | 0 % of max | 1
2 | (pE)SGEGSFQPSQENPQ-amide ([pGlu]SGEGSFQPSQENPQ-NH2; SMILES NC(=O)CC[C@H](NC(=O)[C@@H]1CCCN1C(=O)[C@H](CC(N)=O)NC(=O)[C@H](CCC(=O)O)NC(=O)[C@H](CCC(N)=O)NC(=O)[C@H](CO)NC(=O)[C@@H]1CCCN1C(=O)[C@H](CCC(N)=O)NC(=O)[C@H](Cc1ccccc1)NC(=O)[C@H](CO)NC(=O)CNC(=O)[C@H](CCC(=O)O)NC(=O)CNC(=O)[C@H](CO)NC(=O)[C@@H]1CCC(=O)N1)C(N)=O) [Peptide 9] | 0 % of max | 0 % of max | 0 % of max | 0 % of max | 0 % of max | 0 % of max | 0 % of max | 0 % of max | 0 % of max | 0 % of max | 0
3 | (pE)PQPYPEQPQPFPQQ-amide ([pGlu]PQPYPEQPQPFPQQ-NH2; SMILES NC(=O)CC[C@H](NC(=O)[C@H](CCC(N)=O)NC(=O)[C@@H]1CCCN1C(=O)[C@H](Cc1ccccc1)NC(=O)[C@@H]1CCCN1C(=O)[C@H](CCC(N)=O)NC(=O)[C@@H]1CCCN1C(=O)[C@H](CCC(N)=O)NC(=O)[C@H](CCC(=O)O)NC(=O)[C@@H]1CCCN1C(=O)[C@H](Cc1ccc(O)cc1)NC(=O)[C@@H]1CCCN1C(=O)[C@H](CCC(N)=O)NC(=O)[C@@H]1CCCN1C(=O)[C@@H]1CCC(=O)N1)C(N)=O) [Peptide 8] | 0 % of max | 5 % of max | ≥ 100 % of max | ≥ 100 % of max | 45 % of max | 2 % of max | 0 % of max | 39 % of max | 31 % of max | 94 % of max | 42
4 | (pE)QPPFSEQEQPVLPQ-amide (N-terminal pyroglutamate; C-terminal amide) [Peptide 13] | 0 % of max | 16 % of max | 70 % of max | 0 % of max | 6 % of max | 5 % of max | 0 % of max | 0 % of max | 0 % of max | 0 % of max | 10

From US20170045513A1, “METHODS OF DIAGNOSING CELIAC DISEASE USING IP-10” (ImmusanT, Inc., priority 2014, published 2017)
